Experiments:
NPM-ALK [1] = molecular target: T1, NPM-ALK (Homo sapiens, UniProt Q9UM73); assay: Western blotting of phosphorylated signaling proteins in NPM-ALK-transformed CD4+ T cells (NA1, NA2) and SUDHL-1; assay type: cell-based; design: expressed in transfected cells; host or cells: Human CD4+ T cells transduced with a lentiviral vector (lines NA1, NA2); The control line SUDHL-1 expresses NPM-ALK endogenously from the translocation; the other entry of the earlier key: NPM1 (P06748, Nucleophosmin); settings: NA1, NA2 and control SUDHL-1 cells, 100 nM, FIG. 3A
Procedure: (§1) These experiments were performed using antibodies against phosphorylated (p)-ALK, p-STAT3, p-S6RP, total S6RP (Cell Signaling Technology), total NPM-ALK (Pharmigen, San Diego, Calif.), and total STAT3 and actin (ACTB), both from Santa Cruz Biotechnology (Santa Cruz, Calif.), according to the standard protocols.
A mixture of four siRNAs specific for ALK or control siRNAs (all from Dharmacon; Thermo Fisher Scientific, Waltham, Mass.) was introduced into cells using Lipofectamine 2000 as described previously (Marzec et al., 2008, Proc Natl Acad Sci USA 105(52):20852-20857) for SUDHL-1 cells and Nucleofector T-solution (Amaxa; Lonza, Walkersville, Md.) for CD4+ T-cell derived NA1 cells.

NPM-ALK [2] = molecular target: T1, NPM-ALK; assay: Phosphorylation of ALK and its targets in NPM-ALK-transfected HEK cells; assay type: cell-based; design: expressed in transfected cells; the other entry of the earlier key: NPM1 (P06748, Nucleophosmin); settings: higher dose of inhibitor needed, FIG. 10
Procedure: as §1

CD30 [3] = assay: CD30 expression in ALK-negative T-cell lymphoma line 2A; assay type: cell-based, human; settings: ALK-negative T-cell lymphoma cells (2A); FIG. 3B
Procedure: (§2) The cells were analyzed using FACSCalibur (BD Biosciences) and, for data analysis, CellQuest Pro software version 6.03 (BD Biosciences). For the standard cell-surface staining, 0.5−1.0×10^6 cells were incubated for 20 minutes at 4° C. with 10-20 ul of fluorescein isothiocyanate-conjugated (FITC), phycoerythrin-conjugated (PE), or allophycocyanin-conjugated (APC) standard anti-T- and B-cell antibodies, PD-L1 or isotype control antibody (Bio-Legend, San Diego, Calif.). The intracellular staining was performed by using commercially available fixation and permeabilization reagents (BD Biosciences or Life Technologies, Carlsbad, Calif.). In brief, 0.5−1.0×10^6 washed membrane-stained or unstained cells were fixed for 15 minutes at room temperature with 100 ul of Fix/Per-solution or Fixation medium. After washing the cells were re-suspended in 100 ul of PBS or Permeabilization medium, and incubated for 15 minutes at room temperature with 10-20 ul of PE-labeled ALK or isotype control antibody (BD Biosciences). After additional washing, cells were analyzed by flow cytometry (FACSCalibur; BD Biosciences). Data acquisition and analysis were performed using CellQuest Pro software version 6.03 (BD Biosciences).

PD-L1 = PD-L1 expression by flow cytometry; assay type: cell-based, human; settings: 100 nM; FIG. 3D
Procedure: as §2

[4] = system: NPM-ALK-transformed CD4+ T cells; assay: Cell growth of NPM-ALK-transformed CD4+ T cells; assay type: cell-based, human; settings: FIG. 3E and FIG. 12A
Procedure: The cells suspended at 2×10^4/well were incubated at 37° C. in microtiter plates for up to two days, then incubated with MTT (Promega Madison, […].) for 4 hours. Well contents were solubilized overnight in the medium containing 10% SDS and 0.01M HCL. Absorbance at 570 nm in each well was measured using a Titertek Multiskan reader (Thermo Fisher Scientific).
The assay was performed using a cell-proliferation enzyme linked immunosorbent assay (ELISA; Roche Diagnostics, Indianapolis, Ind.) according to the manufacturer's protocol. In brief, cells were cultured at a concentration of 2×10^4 cells per well for 44 hours and labeled with bromodeoxyuridine for 4 hours. After centrifugation, supernatant removal, and plate drying, the cells were fixed and the DNA was denatured using FixDenat reagent (Roche Diagnostics). The amount of incorporated bromodeoxyuridine was determined by incubation with a specific antibody conjugated with horseradish peroxidase, followed by colorimetric conversion of the substrate and absorbance evaluation in the ELISA plate reader.
For annexin V expression assay, cells were treated with the ALK inhibitor CEP-28122 (100 nmol/L) for 48 hours or with ALK siRNA (100 pmol/L) for 72 hours. […] The stained cells were analyzed by flow cytometry using a FACSCalibur system (BD Biosciences); data acquisition and analysis were performed using Cell-Quest Pro software (BD Biosciences).

IL-10 = IL-10 assay; assay type: cell-based, human; settings: 100 nM; FIG. 3C
Procedure: IL-10 expression was using a Human Cytokine 10-Plex Antibody Bead Kit (Life Technologies) as per manufacturer protocol. Sample acquisition employed a Luminex FlexMAP-3D (Life Technologies), and analyses performed using xPONENT software (version 4.0). A nine-point standard curve at threefold dilutions was employed with the range defined by 80%-120% of expected/observed values. Samples were tested in duplicate and CV was <10%. The results are presented as the decrease in the ALK inhibitor (CEP-28122)-treated cells relative to untreated cells.
Total RNA was extracted (RNeasy kit; Qiagen) and reverse transcribed using High Capacity RNA-to-cDNA kit (ABI). Expression levels of NPM-ALK mRNA were quantified by using an ABI/PRISM 7700 sequence detection system with TaqMan Gene Expression Assay kits (NPM-ALK, Hs03024829; β-actin, Hs9999903) (Life Technologies) and SYBR Green assay (Life Technologies) using primers for IL-10 (5′-AAGGCGCATGTGAACTCC-3′; SEQ ID NO: 1 and 5′-[…]-3′; SEQ ID NO: 2) and for GAPDH (5′-[…]-3′; SEQ ID NO: 3 and 5′-[…]-3′; SEQ ID NO: 4. All assays were performed in duplicate. The fold difference in RNA levels was calculated on the basis of the difference between CT values obtained for control and individual mRNA (ΔCT).

CD30 [5] = assay: CD30 expression by flow cytometry in NPM-ALK-transformed CD4+ T cells and ALK+ALCL-derived cells; assay type: cell-based, human; settings: 100 nM, FIG. 3B
Procedure: as §2

T1 sequence (Q9UM73 with tags, fused parts or gaps): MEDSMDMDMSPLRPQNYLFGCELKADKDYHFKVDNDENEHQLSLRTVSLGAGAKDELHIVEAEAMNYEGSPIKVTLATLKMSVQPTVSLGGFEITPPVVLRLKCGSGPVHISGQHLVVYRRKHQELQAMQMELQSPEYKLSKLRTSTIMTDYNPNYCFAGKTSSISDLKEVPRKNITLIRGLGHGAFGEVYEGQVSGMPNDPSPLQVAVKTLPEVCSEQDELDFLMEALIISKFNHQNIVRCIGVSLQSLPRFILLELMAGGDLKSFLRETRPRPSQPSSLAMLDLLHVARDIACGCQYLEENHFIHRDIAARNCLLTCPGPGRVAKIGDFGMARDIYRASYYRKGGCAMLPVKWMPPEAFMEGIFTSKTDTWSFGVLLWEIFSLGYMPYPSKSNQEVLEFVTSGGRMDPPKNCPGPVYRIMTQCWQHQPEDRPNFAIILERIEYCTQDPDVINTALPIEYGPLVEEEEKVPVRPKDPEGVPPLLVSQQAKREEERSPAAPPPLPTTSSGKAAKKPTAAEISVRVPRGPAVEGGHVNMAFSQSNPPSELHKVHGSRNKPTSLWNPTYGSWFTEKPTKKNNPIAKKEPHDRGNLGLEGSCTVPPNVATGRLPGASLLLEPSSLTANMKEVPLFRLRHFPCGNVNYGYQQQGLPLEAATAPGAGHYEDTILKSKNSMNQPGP

## COc1c(Nc2ncc(Cl)c(N[C@H]3[C@@H](C(N)=O)[C@@H]4C=C[C@H]3C4)n2)ccc2c1CC[C@@H](N1CCOCC1)CC2 [CEP-28122]
NPM-ALK [1]
  phosphorylation of cell signaling proteins (ALK, STAT3, S6RP): Suppressive effect
NPM-ALK [1]; listed as ALK inhibitor
  phosphorylation of cell signaling proteins (ALK, STAT3, S6RP): suppression
NPM-ALK [2]
  ALK, STAT3 and S6RP phosphorylation: suppress
CD30 [3]
  CD30 expression: no effect
PD-L1
  expression of PDL-1: Suppressive effect
[4]
  cell growth: dose-dependent inhibition
[4]; listed as ALK inhibitor
  cell growth: suppressed
IL-10
  synthesis of IL-10: Suppressive effect
CD30 [5]
  expression of CD30: Suppressive effect
CD30 [5]; listed as ALK inhibitor
  expression of CD30: diminished

— patent publication US9255279B2, “Anaplastic lymphoma kinase (ALK) as an oncogene capable of transforming normal human cells” (The Trustees of the University of Pennsylvania, priority 2013, dated 2016)
